Assay results published in patent US9573960B2, “Glioblastoma inhibiting compounds and their use” (Life & Brain GmbH, priority 2011, dated 2017).

Experiments:
[1] = test system: patient-specific primary human glioblastoma cells (pGBMs); test: Pharmacodynamic analysis of GAA and GA, AlamarBlue (IMC50); format: cell-based; details: for inhibition of the metabolic activity of pGBMs: FIG. 14A
Description: To validate the results obtained from primary screening, these compounds were purchased from independent suppliers (FIG. 13). Pharmacodynamic analysis was conducted by determining the concentrations that decreased the metabolic activity of pGBMs to 50% control levels (IMC50). […] For further analysis, pGBMs were collected at five days following single-dose in vitro application of the respective compound.
(§1) Considering the cellular and genetic diversity that characterizes GBM, we next investigated GAA's pharmacological effect in 17 pGBM samples derived from 11 patients (see Table 2 for list of samples and patient data). […] Next, pair-wise comparison of GAA-pharmacodynamics was performed in pGBMs to stratify results according to key clinical constellations (Bredel et al., 2011; Glas et al., 2010; Simpson et al., 2006; Weller et al., 2010). Glioblastoma samples derived from (i) the tumor center vs. periphery region of the same patient, (ii) primary vs. recurrent disease of the same patient, (iii) MGMT-promoter hypermethylated vs. unmethylated tissue, (iv) p53 wild type vs. p53 mutated samples, as well as from (v) NFKBIA wild type vs. NFKBIA deleted genotypes.
For pharmacodynamic analysis, 5×10^4 cells were plated in 12-well-plates at 24 hours before application of compound-series. […] Experiments were performed in triplicates. IMC50 was defined as the compound concentration that reduced the metabolic activity by 50% compared to control conditions and determined via data analysis in GraphPad Prism 4.0.

[2] = test system: self-renewing, multipotent cells among pGBMs; test: Neurosphere assay after GA or GAA pre-treatment; format: cell-based, human; details: single pre-treatment, vital cells collected at day 5
Description: In a next series of experiments we aimed to determine the influence of the compounds on the activity of tumor-initiating cells (TICs). TICs embody a severe functional consequence of intra-tumor heterogeneity as, at least in human glioblastoma, it is anticipated that they are represented by a small subpopulation of stem-like, i.e. self-renewing and multipotent cells (e.g. Sties and Rowitch, 2008; Zhou et al., 2009). In previous work, we established their frequencies in the range from 0.25 to 1% among culture passage 5-10 pGBMs (see Glas et al., 2010). To estimate potential compound-induced alterations to the pool of self-renewing and multipotent cells in pGBMs, the neurosphere assay (NSA) was applied as recently described (Scheffler et al., 2005; Glas et al., 2010). Heterogeneous pGBM samples (#'s 046, 078, 106) were exposed to the compounds, vital cells were collected at day 5, and processed under non-adherent conditions in the NSA (neurosphere assay, see methods).
The neurosphere assay was performed to estimate the frequency of self-renewing clonogenic cells according to established protocols (Glas et al., 2010; Scheffler et al., 2005). Neurospheres were quantified at 21 days in culture, triturated to a single cell suspension, and re-plated for analysis of the secondary and tertiary neurospheres. […]

[3] = test system: pGBMs (#046); test: Orthotopic xenotransplantation of pre-treated pGBMs; format: in vivo, Rag2Il2rg−/− mice; details: pGBMs pre-treated 5 days at IMC50, 10^6 cells into striatum, vs DMSO
Description: FIG. 18: Gambogig acid amide decreases the tumor-initiating potential of pGBMs. pGBMs (#046) were treated with IMC50 concentrations of the respective compounds for 5 days in vitro. […] surviving vital cells were subsequently collected and injected into the striatum of adult immunocompromised mice (n=5 for each experiment). (A) Kaplan-Meier curves show no significant survival advantage upon injection of pGBMs pre-treated with gambogic acid (dotted) vs. DMSO controls (solid).
Cells were harvested, counted and re-suspended in 0.1% DNase/PBS. Cellular viability was confirmed via trypan blue exclusion. 10^6 DMSO-control-, gambogic acid or gambogic acid amide-pretreated pGBMs were injected stereotactically into the striatum of 12 week old Rag2Il2rg^−/− mice (0.8 mm anterior, 2 mm lateral, 3 mm deep). Mice were monitored daily and euthanized upon presentation with signs of distress/neurological symptoms or significant weight loss. For subsequent histological analysis, brains were removed, cryoprotected, and serially cut on a cryostat (Leica) at 20 μm thickness. Every fifth section underwent routine H&E staining for histological analysis of tumor formation.

[4] = test system: CD133+ vs. CD133− pGBM cells; test: CD133+ vs CD133- pGBM cells, metabolic activity and cell confluency; format: cell-based, human; details: IMC50, 5 days after single exposure
Description: FIG. 19: Preferred targeting of CD133^+ GBM cells by Gambogig acid amide. (A) FACS-based identification and sorting of CD133^+ subpopulations from pGBMs (#106, top; #058, bottom). Note the respective frequency of CD133^+ cells is indicated within the panel). (B) Relative metabolic activity and cell confluency of CD133-positive vs. CD133-negative pGBM cells determined at 5 days after single exposure of Gambogic acid (IMC50, top) and Gambogic acid amide (IMC50, bottom). Note the selective sensitivity of CD133^+ cells in response to application of Gambogic acid amide.
To further corroborate the cancer stem cell-specific inhibitory activity of GAA, we selected CD133-positive and -negative cell populations from pGBMs (FIG. 19). CD133^+ cells are known among glioblastoma samples to represent a minority of tumorigenic stem-like phenotypes (Singh et al., 2004). Comparative evaluation of the inhibitory effects induced by GAA and GA on CD133^+ vs. CD133^− pGBM cells confirmed our assumption.
For fluorescence-activated cell separation (FACS), cells were stained with CD133/2-PE or with CD133/2-APC (both 1:20; Miltenyi Biotech) and sorted on a BD FACS DiVa Cell Sorter (Becton Dickinson).

[5] = test system: four patient-specific primary GBM cultures; test: cells; details: Homo sapiens, read-out: cellular viability of pGBMs, control levels
Description: (§2) Before screening, cell number was titrated for each cell line separately to ensure that cell proliferation remained in a linear-exponential phase throughout the experiment. 24 hours after seeding 2−3×10^3 cells/well into laminin/poly-L-ornithine coated 96-well plates, primary cultures were treated with 2 nM, 1 μM or 10 μM of each compound (stock solution 10 mM in DMSO). As a reference we treated cells with 50 μM and 500 μM temozolomide (TMZ, SigmaAldrich, Taufkirchen, Germany; stock solution of 100 mM in DMSO). Control cells were treated with 0.5-0.01% DMSO. Six days after application, cell viability was determined using the AlamarBlue® assay according to the manufacturers recommendations (Invitrogen, Karlsruhe, Germany). Fluorescence was measured using an Infinite200 microplate reader (Tecan, Crailsheim, Germany) at Xex=540 nm and Xem=590 nm. Experiments were performed in triplicates for each sample.
(§3) To identify cytotoxic and cytostatic compounds, we conducted in vitro drug-screening assays in four different patient-specific primary GBM cultures (see Table 1 for basic characterization of research specimens).
(§4) The compound library was screened at three different concentrations (10 μM, 1 μM, 2 nM). The relative metabolic activity was determined after a 5-day incubation with compounds. […] For reference, we applied 50 μM (reported plasma peak concentration) and 500 μM of temozolomide (TMZ, as described in Beier et al., 2008), the current standard chemotherapeutic GBM drug to our cells. […] However, “hits” in the setting of a primary screening were defined as a reduction of the relative metabolic activity under the level of 50% of DMSO-treated control cells.

[6] = test system: LN229, T98G, U87, U138, and U373 cells; test: Pharmacodynamic analysis in commercial glioma/GBM cell lines; format: cell-based; details: compared with pGBM IMC50's
Description: as §1
For pharmacodynamic analysis, 5×10^4 cells were plated in 12-well-plates at 24 hours before application of compound-series. AlamarBlue®-based analysis was conducted at 5 days post treatment. Experiments were performed in triplicates. IMC50 was defined as the compound concentration that reduced the metabolic activity by 50% compared to control conditions and determined via data analysis in GraphPad Prism 4.0.

[7] = test system: four patient-specific primary GBM cultures; details: 1 μM
Description: as §2, §3, §4

SMILES	inhibition of the metabolic activity of pGBMs [1]	frequency of self-renewing, multipotent cells (primary, secondary, tertiary spheres) [2]	survival of animals that received pre-treated pGBMs [3]	selective reduction of cell growth and viability among CD133+ vs CD133− cells [4]	viability at 1 µM [5] [%]	time of induction of inhibitory activity ([1]; day 1, 2 or 5 following exposure, versus Gambogic acid)	IC50 ([1]; pGBM #106, day 5) [nM]	IC50 ([1]; pGBM #132, day 5) [nM]	inhibitory activity compared with GA (dose-response) ([1]; triplicate analysis for each sample)	inhibitory activity in commercial glioma/GBM cell lines [6]	cellular viability of pGBMs, control levels [7]
CC(C)=CCC[C@]1(C)C=Cc2c(O)c3c(c(CC=C(C)C)c2O1)O[C@]12C(=C[C@@H]4C[C@H]1C(C)(C)O[C@@]2(C/C=C(/C)C(=O)O)C4=O)C3=O [GA, Gambogic acid]	effectively and to a comparable degree	no GA-induced alteration	not evident	could not be revealed	< 50	–	–	–	–	–	–
CC(C)=CCC[C@]1(C)C=Cc2c(O)c3c(c(CC=C(C)C)c2O1)O[C@]12C(=C[C@@H]4CC1C(C)(C)O[C@@]2(C/C=C(/C)C(N)=O)C4=O)C3=O [GAA, Gambogic acid amide]	effectively and to a comparable degree	considerably reduced frequency	significantly increased survival	significantly stronger reduction	–	earlier time point	514	78	consistently at lower concentrations	Comparable results	below 50%
